Results reported in a melting point compilation (Tetko et al.; mined from patent text by program, amines drawn as free bases though some values may be those of a salt).

Structure (SMILES)	melting point [°C]
COCc1csc(C(=O)C2C(=O)N(C(N)=O)c3ccc(Cl)cc32)c1 (centres undefined)	193 to 195
CCOC(=O)c1ccc2ccc(O)cc2c1	155 to 156
COc1ccccc1CN[C@H]1CCCN(CCCCCCCc2ccccc2)[C@H]1c1ccccc1 (relative stereo)	67 to 77
CC1Nc2cc(-c3ccc(Cl)cc3)ccc2NC1=O (centres undefined)	228 to 230
CC12CCC(C(=O)O)=CC1=CCC1C2CCC2(C)C(C(=O)C3CCCCC3)CCC12 (centres undefined)	217 to 220
O=C(CCc1ccccc1)OCCOC(=O)NC1(C(=O)O)CC1	133 to 134
CCC(=O)c1ccc(SCCCBr)cc1	40 to 41
CC1(C)CC(=O)Nc2cc(C(=O)Nc3ccccc3)ccc21	249 to 251
COc1ccccc1[C@H](c1cccc2ccccc12)[C@@](C)(C#N)C(=O)N1CCC(c2cccc(C(F)(F)F)c2)CC1	123 to 127
Nc1nc2ccccc2c2c1ncn2C1CC(O)C(CO)O1 (centres undefined)	232 to 237
O=C1c2ccccc2N(Cc2ccc(F)cc2)C2=NCCN12	192 to 195
CCCCc1nc(SC)c(C(=O)OCC)n1Cc1ccc(-c2ccc(S(=O)(=O)NC#N)cc2C)cc1	211
Cc1cc(C)cc(COC(=O)[C@H](Cc2cccc3ccccc23)NC(=O)OC(C)(C)C)c1	93 to 94
O=C(NCc1cccnc1)c1cc(-n2cnn(Cc3ccc(F)cc3)c2=O)[nH]n1	235 to 236
CCOC(=O)NN=C(c1ccc(Cl)cc1)c1ccc(OS(=O)(=O)c2ccc([N+](=O)[O-])cc2)cc1	134 to 138
CCOC(=O)c1ccc2sc(C=Cc3cccnc3)c(C)c2c1	123 to 124
COc1ccc(Cn2cnc(=O)c3[nH]c(C(C)C)nc32)cc1OCc1ccccc1	233 to 235
COc1cccc(C(C)CC(=O)Nc2sc3c(c2C#N)CCNC3)c1 (racemic)	197 to 200
c1ccc(Cc2cccnn2)cc1	61 to 64
NC(=O)c1ccc2ccccc2c1-c1c(P(=O)(c2ccccc2)c2ccccc2)ccc2ccccc12	122

Structure (SMILES)	melting point [°C]
Cn1c(Cn2nc(CC(=O)O)c3ccccc3c2=O)nc2ccccc21	230
O=Cc1c2ccccc2c(C=O)c2c(Cl)cccc12	186 to 189
CC(C)c1noc(-c2ncn3c4cccc(Cl)c4c(=O)n(C)c23)n1	209
COc1cc(Nc2c(C#N)cnc3cc(F)ccc23)c(Cl)cc1Cl	199 to 201
CCc1cc(C(=O)c2ccccc2Cl)c(NC=C[N+](=O)[O-])s1	125 to 126
CS(=O)(=O)Nc1ccc(C(O)C2CCN(CCc3ccccc3)CC2)cc1 (centres undefined)	164 to 166
C=CCCC(O)=C(C#N)C(=O)Nc1ccc(C(F)(F)F)cc1	145
CC(C)(C)OC(=O)N1CC[C@H]2c3c(-c4ccccc4F)cccc3N(C(=O)OC(C)(C)C)[C@H]2CC1 (relative stereo)	166 to 169
COc1cccc(C2=C(c3cn4c5c(cccc35)CCC4)C(=O)NC2=O)c1	99 to 101
COc1ccc(CCc2nnc(-c3ccc4[nH]nnc4c3)o2)cc1C(F)(F)F	154 to 155
CSC(=NC(=O)NC(C)C)NC(=O)NC(C)C	125 to 127
CSC1C(O)C(CO)OC1n1ccc(N)nc1=O (centres undefined)	201
CCCCCCCCCCCCCCCCCCC1CNc2cc(C(=O)O)ccc21 (racemic)	112 to 114
CC(C)(c1ccc(S(=O)(=O)N(CCO)CCO)cc1[N+](=O)[O-])[N+](=O)[O-]	109 to 110
CC12CC(=O)C3C(C=CC4=CC(=O)CCC43C)C1CCC2=O (centres undefined)	237
Nc1sc2c(c1C(=O)c1ccc(Cl)cc1)CCN(Cc1ccccc1)C2	155 to 157
Cc1cc2c(c3ccc(=O)[nH]c13)OC(CCCl)C2 (centres undefined)	209 to 211
COc1ccc2c(c1)C(=O)N(c1ccc(C(C)CO)cc1)C2 (centres undefined)	135 to 138
CCCCN=c1cc2n(c(=O)n1C)CCc1cc(OC)c(OC)cc1-2	120 to 121
